Measured values reported in patent US8765941B2 (Kino Pharma, Inc., priority 2008, dated 2014).
Where two headings read alike, the source gives them in different places.

What was measured:
[1] = tested on: intracellular HCV protein (NS3-NS4-NS5A-NS5B); assay: HCV viral protein expression assay using LuHCV cells (luciferase activity)
Description: As an HCV viral protein expression assay, screening was performed for compounds having anti-HCV activity using human hepatocytes with which the replication and expression of the intracellular HCV protein (NS3-NS4-NS5A-NS5B) can be evaluated through determination of luciferase activity (hereinafter, referred to as LuHCV).
LuHCV cells were plated onto 96-well plates at 5×10^3 cells/50 μL/well and then incubated overnight. Test compounds were each dissolved in dimethyl sulfoxide (DMSO) and dilution series were prepared using DMSO, if necessary. On the next day of plating of LuHCV cells, a medium containing a test compound with a concentration twice the final test concentration was added at 50 μL/well. Cells were gently cultured under culture conditions of 48 hours, 37° C., and 5% CO2 (the final concentrations of the test compounds: 0, 10, and 20 μM). At this time, analysis was made using 3 test wells for each test compound and for each concentration.
Culture medium was removed after 48 hours. Glo lysis buffer (100 μL) (Promega) was added to each well and then cells were disrupted, so that a cell extract was obtained. With the use of 50 μL of the thus obtained cell extract, 50 μL of a Bright-Glo™ Luciferase Assay System (Promega) reagent was added. Luciferase activity in the extract was determined by measuring luminescence intensity for one second using a measuring device ARVO (PerkinElmer Co., Ltd.).
Based on the thus obtained numerical values of luminescence intensity, an average value for each test compound at each concentration was calculated. The luminescence intensity percentage for each test compound was calculated based on a luminescence intensity for DMSO (used as a control for test substances) as 100%.
Culture medium was removed after 48 hours. Glo Lysis buffer (100 μL) (Promega) was added to each well and then cells were disrupted, so that a cell extract was obtained. With the use of 50 μL of the thus obtained cell extract, 50 μL of a Bright-Glo™ Luciferase Assay System (Promega) reagent was added. Luciferase activity in the extract was determined by measuring luminescence intensity for one second using a measuring device ARVO (PerkinElmer Co., Ltd.).
Based on the thus obtained numerical values of luminescence intensity, an average value for each test compound at each concentration was calculated. The luminescence intensity percentage for each test compound was calculated based on a luminescence intensity of DMSO (used as a control for test substances) as 100%.

influenza virus = conditions: for cell death due to influenza virus infection (result in words): 5 and 10 μM, 48 hours, MDCK cells
LuHCV cells [2] = assay: Evaluation of cell growth suppression using LuHCV cells (percentage of viable cells, reagent SF); format: cell-based, human; conditions: 48 hours, DMSO = 100%
Description: At this time, as a background absorbance, measurement was also performed for wells containing test compounds (or DMSO used as a control), but containing no cells. Each of the thus obtained background numerical values was deducted from the absorbance of a cell-containing well (measured for the same compound at the same concentration). The resulting value was designated as actual measurement of number of viable cells containing no background. […] With an average value measured for DMSO used as a control test substance designated as 100%, the percentage of the number of viable cells for each test compound was calculated.
At this time, as a background absorbance, measurement was also performed for wells containing test compounds (or containing DMSO used as a control), but containing no cells. Each of the thus obtained background numerical values was deducted from the absorbance of a cell-containing well (measured for the same compound at the same concentration). The resulting value was designated as actual measurement of number of viable cells containing no background. […] By using a value measured upon addition of DMSO used as a control test substance designated as 100%, the percentage of the number of viable cells for each test compound was calculated. Table 1-2 and FIG. 2B show the percentage of the number of viable cells (cell viability (% control)) for each test compound at each concentration.

[3] = Toxicity test by repeated in vivo administration; parameters: species or system mice (Cr1j/CD1 (ICR) mice, male); conditions: oral
Description: A conditioning period of one week (day-7 to day-1) was provided for mice (Cr1j/CD1 (ICR) mice, male, 5-week-old), and then the mice were grouped based on the mean body weight on the day before the initiation of the test. Also, the dose of Compound 5 was calculated based on the mean body weight (day-1). There were 2 groups to which Compound 5 was administered: a placebo-administered group (n=6) to which a placebo was administered and a Compound 5-administered group (n=6) to which Compound 5 was administered. On the days of administration (day 00 to day 07), the test compound formulated using 0.5% carboxymethyl cellulose was administered via oral administration for 7 days in a row. Symptoms were observed during the administration period.
During the test period, the body weight of each mouse was weighed on day −7, day −3, day −1, day 4, and day 7.

HCV RNA (NS5A) = assay: Effects on replication and stability of HCV RNA (RT-PCR) in LuHCV cells; format: cell-based, hepatitis C virus (HCV); conditions: 20 μM, 14 hours and 60 hours
Description: LuHCV cells were plated onto 10-cm dishes at 1×10^6 cells/dish and then incubated overnight or longer. Subsequently, Compound 5 dissolved in DMSO was added at a final concentration of 20 μM. Cells were further gently cultured under culture conditions of 37° C. and 5% CO2. DMSO alone was added to a control dish. At 14 hours and 60 hours after addition of Compound 5, cells were collected and then total RNA was extracted using Sepasol-RNA (NACALAI TESQUE, INC.). cDNA was synthesized using SuperScript II reverse transcriptase (Invitrogen) and oligo-dTprimer (Promega) or random primers (Invitrogen Corporation). PCR was performed using the thus synthesized cDNA as a template, NS5A-specific primers (5′-[…]-3′ (SEQ ID NO: 1) and 5′-[…]-3′ (SEQ ID NO: 2)), GAPDH primers (5′-[…]-3′ (SEQ ID NO: 3) and 5′-[…]-3′ (SEQ ID NO: 4)), and PrimeSTAR HS DNA polymerase (Takara Bio Inc.). After DNA amplification reaction, agarose gel electrophoresis and ethidium bromide staining were performed. The expression level of each gene was evaluated using a UV transilluminator.

HCV-NS5A protein = assay: HCV protein expression-suppressing activity by Western blotting in LuHCV cells; format: cell-based, hepatitis C virus (HCV); conditions: 20 μM, 14 hours and 60 hours
Description: LuHCV cells were plated onto 10-cm dishes at 1×10^6 cells/dish and then incubated overnight or longer. Subsequently, Compound 5 dissolved in DMSO was added at a final concentration of 20 μM. Cells were further gently cultured under culture conditions of 37° C. and 5% CO2. DMSO alone was added to a control dish. At 14 hours and 60 hours after addition of Compound 5, cells were collected. Cells were lysed using a cell lysis solution (25 mM NaPO4 (pH 7.5), 150 mM NaCl, 1% Triton X-100, 1 mM EDTA, 20% glycerol, and protease inhibitor cocktail (Roche Diagnostics)), so that cell extracts were obtained. With the use of the thus obtained cell extracts (10 μg each), expression analysis was performed by Western blotting for an HCV-NS5A protein (an antibody was purchased from Virogen) and β-actin (an antibody was purchased from Sigma).

LuHCV cells [4] = assay: Effects on the growth of LuHCV cells (hemocytometer count); format: cell-based, human; conditions: 20 μM, 0, 6, 12, 24, 36 and 48 hours
Description: LuHCV cells were plated onto a 6-well plate at 5×10^4 cells/1 mL/well and then incubated overnight. […] The final concentration of Compound 5 was 20 μM. […] After addition of Compound 5, cells were collected from 3 wells at 0, 6, 12, 24, 36, and 48 hours later, the number of viable cells per well was measured using a hemocytometer, and then the average value was calculated. Wells to which only DMSO had been added were used as control wells.

[5] = Hepatitis C virus, 48 h, read-out: luc activity (% control)

O=C(NC(=S)Nc1cc(C(F)(F)F)ccc1N1CCCCCCC1)c1ccccc1 [Compound 14, N-benzoyl-N′-[2-(azacyclooctan-1-yl)-5-(trifluoromethyl)phenyl]thiourea]
activity at 10 µM [1, 5]: 30.3%
activity at 20 µM [1, 5]: 14.8%
viability (% control) (influenza virus; 5 µM): 71.6 ± 2.2 % control
viability (% control) (influenza virus; 10 µM): 100.0 ± 2.0 % control
cell death due to influenza virus infection (result in words) (influenza virus): cell death was decreased
viability (% control) (LuHCV cells [2]; 10 μM): 103.81 % control
viability (% control) (LuHCV cells [2]; 20 μM): 103.76 % control

O=C(NC(=S)Nc1cc(C(F)(F)F)ccc1N1CCCCCCC1)c1cccnc1 [Compound 5, N-nicotinoyl-N′-[2-(azacyclooctan-1-yl)-5-(trifluoromethyl)phenyl]thiourea]
dead mice during the administration period ([3]; 1000 mg/kg/day, 7 days): no dead mice were observed
level at which no adverse effect is observed ([3]; 7 days repeated administration, mice): ≥ 1000 mg/kg
amount of NS5A and GAPDH RNA (RT-PCR) (HCV RNA (NS5A)): no quantitative change was observed
expression level of NS5A (Western blotting) (HCV-NS5A protein): a decrease in the expression level of NS5A was observed
expression level of β-actin (Western blotting) (HCV-NS5A protein): no change was observed
luciferase activity (result in words) ([1]; 0, 10 and 20 μM, 48 hours, LuHCV cells): Decreases in luciferase activity
decrease in luminescence intensity compared with the control ([1]; 10 μM, 48 hours, LuHCV cells): about 50%
viability (% control) (influenza virus; 5 µM): 41.8 ± 2.2 % control
viability (% control) (influenza virus; 10 µM): 63.1 ± 0.9 % control
cell death due to influenza virus infection (result in words) (influenza virus): cell death was decreased
number of viable cells at each time point versus DMSO control (LuHCV cells [4]): Almost no differences were observed
